Assay results reported in patent US10202604B2, “Methods of using microRNA-141” (Stemirna Therapeutics Co., Ltd., priority 2016, dated 2019).

What was measured:
Du145 cells = test: Boyden chamber Matrigel invasion assay; assay type: cell-based, human; details: 1, 2, and 5 μM for 96 h
Procedure: FIGS. 3A-3J show partial suppression of epithelial to mesenchymal transition by miR-141 and CD44 as a direct target of miR-141. FIGS. 3A-3B show qPCR analysis of epithelial to mesenchymal transition markers in bulk (FIG. 3A) or CD44^+ (FIG. 3B) Du145 cells transfected with the miR-141 oligos (30 nM; 48 h). Results were presented as the relative expression levels over the cells transfected with the NC oligos. […] GAPDH was used as control and the relative protein levels after normalizing to GAPDH and NC controls were indicated below each lane. […] Shown below is the actual sequence in the region with the mutated miR-141 binding sequence indicated in grey (below). […] Shown are representative images. […]
Du145 cells transfected with NC or miR-141 oligos at the two doses and time intervals indicated were used in Western blotting. Indicated below are relative expression levels (normalized to respective GAPDH and compared to NC) of each protein determined by densitometric scanning of the individual bands. […]
FIG. 6A: Putative binding site of miR-141 in EZH2 3′-UTR. […] Relative protein levels were measured by densitometry and normalized to GAPDH levels (indicated below). […]
For Boyden Chamber invasion assays, Biocoat Matrigel Invasion Chamber (BD, Franklin Lakes, N.J.) was employed following the manufacturer's instructions. […] Representative images were taken for each membrane and cells were counted. […]

EZH2 = EZH2 mRNA and protein levels; assay type: cell-based, human; details: Du145 cells; 1, 2, and 5 μM for 96 h
Procedure: FIG. 6A: Putative binding site of miR-141 in EZH2 3′-UTR. […] FIG. 6C is a qPCR analysis of EZH2 mRNA levels in CD44^+ PCa cells. Bars, mean±SD. *P<0.05; **P<0.01. […] Bars, mean±SD. **P<0.01. […] Western blotting was performed in PC3 and Du145 cells transfected with NC (60 nM) or miR-141 (30 or 60 nM) oligos (72 h). Relative protein levels were measured by densitometry and normalized to GAPDH levels (indicated below). […] Du145 cells plated one day before were treated with 1, 2, and 5 μM of DZNep for 96 h and then cells were harvested for invasion assays. **P<0.01. Inset, WB showing reduced EZH2 proteins by DZNep. […] Du145 cells were transfected with 10 nM scramble siRNA (siCon) or EZH2-targeting siRNAs (siEZH2) or siEZH2 plus anti-miR-141 (30 nM). 48 h later, cells were harvested for invasion assays. Bars, mean±SD. **P<0.01. […] Du145 cells were co-transfected with 30 nM NC or miR-141 oligos together with empty vector or pCMV-EZH2 construct. After 48 h, cells were harvested for invasion assay. Bars, mean±SD. **P<0.01.
Total RNA was extracted using microRNA isolation kit (Life Technologies) according to the manufacturer's instructions. microRNA qPCRs were performed using TaqMan microRNA assays (Life Technologies). qPCR data for microRNAs were normalized to RNU48 whereas qPCR data for mRNAs were normalized to GAPDH.
For Boyden Chamber invasion assays, Biocoat Matrigel Invasion Chamber (BD, Franklin Lakes, N.J.) was employed following the manufacturer's instructions. Briefly, 100,000-200,000 of prostate cancer cells after transfection with […]/miR-141 oligos or infection with miR-141 over-expressing lentivirus were seeded into each well. Medium with 20% fetal bovine serum was used in the lower chamber as chemo-attractant. After 20 h, cells were fixed and stained using HEMA stain. Representative images were taken for each membrane and cells were counted. Migration assays were simultaneously performed in control wells using identical protocol with Transwell (Costar; 8 μl PET) without Matrigel. […]

Question: How did the Du145 cell invasion (Du145 cells) turn out when `Cl.Nc1nccc2c1ncn2[C@@H]1C=C(CO)[C@@H](O)[C@H]1O` [DZNep, 3-Deazaneplanocin A hydrochloride, reference compound] was run?
Answer: blocked

Question: And the EZH2 protein (EZH2)?
Answer: reduced
